Test results as given in the NIST ThermoML archive (doi:10.1021/je9002515).
± gives the expanded uncertainty stated by the source.

Tests used:
[1] = 101 kPa, Liquid, Alternating current cell with electrodes
[2] = xn = mol fraction of the nth substance listed; conditions: 101 kPa, Liquid, Alternating current cell with electrodes, x2 = 0

| electrical conductivity ([1]; 303.15 K) [S/m] | electrical conductivity ([1]; 313.15 K) [S/m] | electrical conductivity ([1]; 323.15 K) [S/m] | electrical conductivity ([1]; 333.15 K) [S/m] | electrical conductivity ([1]; 343.15 K) [S/m] | electrical conductivity ([1]; 353.15 K) [S/m] | electrical conductivity ([1]; 363.15 K) [S/m] | electrical conductivity ([1]; 373.15 K) [S/m] | electrical conductivity ([1]; 383.15 K) [S/m] | electrical conductivity ([1]; 393.15 K) [S/m] | electrical conductivity ([2]; 303.15 K) [S/m] | electrical conductivity ([2]; 313.15 K) [S/m] | electrical conductivity ([2]; 323.15 K) [S/m] | electrical conductivity ([2]; 333.15 K) [S/m] | electrical conductivity ([2]; 343.15 K) [S/m] | electrical conductivity ([2]; 353.15 K) [S/m] | electrical conductivity ([2]; 363.15 K) [S/m] | electrical conductivity ([2]; 373.15 K) [S/m] | electrical conductivity ([2]; 383.15 K) [S/m] | electrical conductivity ([2]; 393.15 K) [S/m] | SMILES |
| --- | --- | --- | --- | --- | --- | --- | --- | --- | --- | --- | --- | --- | --- | --- | --- | --- | --- | --- | --- | --- |
| 0.0149 ± 0.0024 | 0.0195 ± 0.0031 | 0.024 ± 0.0038 | 0.0307 ± 0.0049 | 0.04 ± 0.0064 | 0.0462 ± 0.0074 | 0.0508 ± 0.0081 | 0.0534 ± 0.0086 | 0.0544 ± 0.0087 | 0.0518 ± 0.0083 | – | – | – | – | – | – | – | – | – | – | CC(=O)N(C)C [N,N-dimethylethanamide] |
| – | – | – | – | – | – | – | – | – | – | 0.0149 ± 0.0024 | 0.0195 ± 0.0031 | 0.024 ± 0.0038 | 0.0307 ± 0.0049 | 0.04 ± 0.0064 | 0.0462 ± 0.0074 | 0.0508 ± 0.0081 | 0.0534 ± 0.0086 | 0.0544 ± 0.0087 | 0.0518 ± 0.0083 | CC(=O)N(C)C [N,N-dimethylethanamide] + CNC(C)=O |
| 0.0324 ± 0.0052 | 0.0447 ± 0.0072 | 0.0614 ± 0.0098 | 0.0775 ± 0.012 | 0.105 ± 0.017 | 0.129 ± 0.021 | 0.165 ± 0.026 | 0.192 ± 0.031 | 0.219 ± 0.035 | 0.247 ± 0.04 | – | – | – | – | – | – | – | – | – | – | CNC(C)=O [N-methylacetamide] |
